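Tested at 5 concentrations; 48 h exposure; 96-well plates; endpoints linearly interpolated, else capped at highest concentration. TGI denotes the concentration required for complete inhibition of growth.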
How the values were obtained:
Test in all cases: DTP human tumour cell line panel, 48 h
786-0 renal = system: 786-0 renal
A549 NSCLC = system: A549 NSCLC
ACHN renal = system: ACHN renal
CAKI-1 renal = system: CAKI-1 renal
CCRF-CEM leukemia = system: CCRF-CEM leukemia
COLO 205 colon = system: COLO 205 colon
DLD-1 colon = system: DLD-1 colon
DMS 114 small cell lung = system: DMS 114 small cell lung
DMS 273 small cell lung = system: DMS 273 small cell lung
EKVX NSCLC = system: EKVX NSCLC
HCC-2998 colon = system: HCC-2998 colon
HCT-116 colon = system: HCT-116 colon
HCT-15 colon = system: HCT-15 colon
HL-60(TB) leukemia = system: HL-60(TB) leukemia
HOP-62 NSCLC = system: HOP-62 NSCLC
HT29 colon = system: HT29 colon
IGROV1 ovarian = system: IGROV1 ovarian
K-562 leukemia = system: K-562 leukemia
KM12 colon = system: KM12 colon
KM20L2 colon = system: KM20L2 colon
LOX IMVI melanoma = system: LOX IMVI melanoma
LXFL 529 NSCLC = system: LXFL 529 NSCLC
M14 melanoma = system: M14 melanoma
M19-MEL melanoma = system: M19-MEL melanoma
MALME-3M melanoma = system: MALME-3M melanoma
MOLT-4 leukemia = system: MOLT-4 leukemia
NCI-H226 lung = system: NCI-H226 lung
NCI-H23 lung = system: NCI-H23 lung
NCI-H460 lung = system: NCI-H460 lung
NCI-H522 lung = system: NCI-H522 lung
OVCAR-3 ovarian = system: OVCAR-3 ovarian
OVCAR-4 ovarian = system: OVCAR-4 ovarian
OVCAR-5 ovarian = system: OVCAR-5 ovarian
OVCAR-8 ovarian = system: OVCAR-8 ovarian
RPMI-8226 leukemia = system: RPMI-8226 leukemia
RXF 393 renal = system: RXF 393 renal
RXF-631 renal = system: RXF-631 renal
SF-268 CNS = system: SF-268 CNS
SF-295 CNS = system: SF-295 CNS
SF-539 CNS = system: SF-539 CNS
SK-MEL-2 melanoma = system: SK-MEL-2 melanoma
SK-MEL-28 melanoma = system: SK-MEL-28 melanoma
SK-OV-3 ovarian = system: SK-OV-3 ovarian
SN12C renal = system: SN12C renal
SNB-19 CNS = system: SNB-19 CNS
SNB-75 CNS = system: SNB-75 CNS
SR leukemia = system: SR leukemia
SW-620 colon = system: SW-620 colon
TK-10 renal = system: TK-10 renal
U251 CNS = system: U251 CNS
UACC-257 melanoma = system: UACC-257 melanoma
UACC-62 melanoma = system: UACC-62 melanoma
UO-31 renal = system: UO-31 renal
XF 498 CNS = system: XF 498 CNS
A498 renal = system: A498 renal
SK-MEL-5 melanoma = system: SK-MEL-5 melanoma
SNB-78 CNS = system: SNB-78 CNS
HOP-18 NSCLC = system: HOP-18 NSCLC
HOP-92 NSCLC = system: HOP-92 NSCLC

O=S(=O)(c1ccccc1)C1CN2OC1(S(=O)(=O)c1ccccc1)CC21CCCCC1 (stereo unspecified)
TGI (786-0 renal): > 100 µM
TGI (A549 NSCLC): > 100 µM
TGI (ACHN renal): > 100 µM
TGI (CAKI-1 renal): > 100 µM
TGI (CCRF-CEM leukemia): > 100 µM
TGI (COLO 205 colon): > 100 µM
TGI (DLD-1 colon): > 100 µM
TGI (DMS 114 small cell lung): > 100 µM
TGI (DMS 273 small cell lung): > 100 µM
TGI (EKVX NSCLC): > 100 µM
TGI (HCC-2998 colon): > 100 µM
TGI (HCT-116 colon): > 100 µM
TGI (HCT-15 colon): > 100 µM
TGI (HL-60(TB) leukemia): > 100 µM
TGI (HOP-62 NSCLC): > 100 µM
TGI (HT29 colon): > 100 µM
TGI (IGROV1 ovarian): > 100 µM
TGI (K-562 leukemia): > 100 µM
TGI (KM12 colon): > 100 µM
TGI (KM20L2 colon): > 100 µM
TGI (LOX IMVI melanoma): > 100 µM
TGI (LXFL 529 NSCLC): > 100 µM
TGI (M14 melanoma): > 100 µM
TGI (M19-MEL melanoma): > 100 µM
TGI (MALME-3M melanoma): > 100 µM
TGI (MOLT-4 leukemia): > 100 µM
TGI (NCI-H226 lung): > 100 µM
TGI (NCI-H23 lung): > 100 µM
TGI (NCI-H460 lung): > 100 µM
TGI (NCI-H522 lung): > 100 µM
TGI (OVCAR-3 ovarian): > 100 µM
TGI (OVCAR-4 ovarian): > 100 µM
TGI (OVCAR-5 ovarian): > 100 µM
TGI (OVCAR-8 ovarian): > 100 µM
TGI (RPMI-8226 leukemia): > 100 µM
TGI (RXF 393 renal): > 100 µM
TGI (RXF-631 renal): > 100 µM
TGI (SF-268 CNS): > 100 µM
TGI (SF-295 CNS): > 100 µM
TGI (SF-539 CNS): > 100 µM
TGI (SK-MEL-2 melanoma): > 100 µM
TGI (SK-MEL-28 melanoma): > 100 µM
TGI (SK-OV-3 ovarian): > 100 µM
TGI (SN12C renal): > 100 µM
TGI (SNB-19 CNS): > 100 µM
TGI (SNB-75 CNS): > 100 µM
TGI (SR leukemia): > 100 µM
TGI (SW-620 colon): > 100 µM
TGI (TK-10 renal): > 100 µM
TGI (U251 CNS): > 100 µM
TGI (UACC-257 melanoma): > 100 µM
TGI (UACC-62 melanoma): > 100 µM
TGI (UO-31 renal): > 100 µM
TGI (XF 498 CNS): > 100 µM

O=c1c(C(=Nc2ccccc2)c2ccccc2)c[nH]n1-c1ccccc1
TGI (786-0 renal): > 100 µM
TGI (A498 renal): > 100 µM
TGI (A549 NSCLC): > 100 µM
TGI (ACHN renal): > 100 µM
TGI (CAKI-1 renal): > 100 µM
TGI (CCRF-CEM leukemia): > 100 µM
TGI (COLO 205 colon): > 100 µM
TGI (DLD-1 colon): > 100 µM
TGI (DMS 114 small cell lung): > 100 µM
TGI (DMS 273 small cell lung): > 100 µM
TGI (EKVX NSCLC): > 100 µM
TGI (HCC-2998 colon): > 100 µM
TGI (HCT-15 colon): > 100 µM
TGI (HL-60(TB) leukemia): > 100 µM
TGI (HT29 colon): > 100 µM
TGI (IGROV1 ovarian): > 100 µM
TGI (K-562 leukemia): > 100 µM
TGI (KM12 colon): > 100 µM
TGI (KM20L2 colon): > 100 µM
TGI (LOX IMVI melanoma): > 100 µM
TGI (LXFL 529 NSCLC): > 100 µM
TGI (M14 melanoma): > 100 µM
TGI (MALME-3M melanoma): > 100 µM
TGI (MOLT-4 leukemia): > 100 µM
TGI (NCI-H23 lung): > 100 µM
TGI (NCI-H460 lung): > 100 µM
TGI (NCI-H522 lung): > 100 µM
TGI (OVCAR-4 ovarian): > 100 µM
TGI (OVCAR-5 ovarian): > 100 µM
TGI (OVCAR-8 ovarian): > 100 µM
TGI (RPMI-8226 leukemia): > 100 µM
TGI (RXF 393 renal): 72.8 µM
TGI (RXF-631 renal): > 100 µM
TGI (SF-268 CNS): > 100 µM
TGI (SF-295 CNS): > 100 µM
TGI (SF-539 CNS): > 100 µM
TGI (SK-MEL-2 melanoma): > 100 µM
TGI (SK-MEL-28 melanoma): > 100 µM
TGI (SK-MEL-5 melanoma): > 100 µM
TGI (SK-OV-3 ovarian): > 100 µM
TGI (SN12C renal): > 100 µM
TGI (SNB-19 CNS): > 100 µM
TGI (SNB-75 CNS): > 100 µM
TGI (SNB-78 CNS): > 100 µM
TGI (SW-620 colon): > 100 µM
TGI (TK-10 renal): > 100 µM
TGI (U251 CNS): > 100 µM
TGI (UACC-257 melanoma): > 100 µM
TGI (UACC-62 melanoma): > 100 µM
TGI (UO-31 renal): > 100 µM
TGI (XF 498 CNS): > 100 µM

N#Cc1ccc(Sc2ccccc2)cc1C#N
TGI (786-0 renal): 71 µM
TGI (A498 renal): > 100 µM
TGI (A549 NSCLC): > 100 µM
TGI (ACHN renal): > 100 µM
TGI (CAKI-1 renal): > 100 µM
TGI (CCRF-CEM leukemia): 43.3 µM
TGI (COLO 205 colon): > 100 µM
TGI (DLD-1 colon): > 100 µM
TGI (DMS 273 small cell lung): 36.6 µM
TGI (EKVX NSCLC): > 100 µM
TGI (HCC-2998 colon): > 100 µM
TGI (HCT-116 colon): 40.6 µM
TGI (HCT-15 colon): 30.6 µM
TGI (HL-60(TB) leukemia): > 100 µM
TGI (HOP-18 NSCLC): > 100 µM
TGI (HOP-62 NSCLC): > 100 µM
TGI (HOP-92 NSCLC): 74.4 µM
TGI (HT29 colon): > 100 µM
TGI (IGROV1 ovarian): > 100 µM
TGI (K-562 leukemia): > 100 µM
TGI (KM12 colon): > 100 µM
TGI (KM20L2 colon): > 100 µM
TGI (LOX IMVI melanoma): 41.7 µM
TGI (LXFL 529 NSCLC): > 100 µM
TGI (M14 melanoma): > 100 µM
TGI (M19-MEL melanoma): > 100 µM
TGI (MALME-3M melanoma): > 100 µM
TGI (MOLT-4 leukemia): > 100 µM
TGI (NCI-H226 lung): > 100 µM
TGI (NCI-H23 lung): > 100 µM
TGI (NCI-H460 lung): 46.6 µM
TGI (NCI-H522 lung): > 100 µM
TGI (OVCAR-3 ovarian): > 100 µM
TGI (OVCAR-4 ovarian): > 100 µM
TGI (OVCAR-5 ovarian): > 100 µM
TGI (OVCAR-8 ovarian): > 100 µM
TGI (RPMI-8226 leukemia): 53.9 µM
TGI (RXF 393 renal): 81 µM
TGI (RXF-631 renal): > 100 µM
TGI (SF-268 CNS): 51.6 µM
TGI (SF-295 CNS): > 100 µM
TGI (SF-539 CNS): 47.4 µM
TGI (SK-MEL-2 melanoma): > 100 µM
TGI (SK-MEL-28 melanoma): > 100 µM
TGI (SK-MEL-5 melanoma): > 100 µM
TGI (SK-OV-3 ovarian): > 100 µM
TGI (SN12C renal): > 100 µM
TGI (SNB-19 CNS): > 100 µM
TGI (SNB-75 CNS): 52.1 µM
TGI (SR leukemia): 39.9 µM
TGI (TK-10 renal): > 100 µM
TGI (U251 CNS): > 100 µM
TGI (UACC-257 melanoma): > 100 µM
TGI (UACC-62 melanoma): > 100 µM
TGI (UO-31 renal): > 100 µM
TGI (XF 498 CNS): 58 µM

Reference: PubChem BioAssay (NCI)
